Test results from ChEMBL document CHEMBL5226369, “Tetracyclic Steroids Bearing a Bicyclo[4.4.1] Ring System as Potent Antiosteoporosis Agents from the Deep-Sea-Derived Fungus Rhizopus sp. W23” (J Nat Prod, 2023).

How the values were obtained:
Assay type in all cases: functional, cell-based
NCI-H460 = assay: Antiproliferative activity against human NCI-H460 cells by MTT assay
MDA-MB-231 = assay: Antiproliferative activity against human MDA-MB-231 cells by MTT assay
K562 = assay: Antiproliferative activity against human K562 cells by MTT assay
A-375 = assay: Antiproliferative activity against human A-375 cells by MTT assay
PC-3 = assay: Antiproliferative activity against human PC-3 cells by MTT assay
BGC-823 = assay: Antiproliferative activity against human BGC-823 cells by MTT assay
A549 = assay: Antiproliferative activity against human A549 cells by MTT assay
A-431 = assay: Antiproliferative activity against human A-431 cells by MTT assay
PANC-1 = assay: Antiproliferative activity against human PANC-1 cells by MTT assay
[1] = Antiproliferative activity against human QGY-7701 cells by MTT assay; conditions: QGY7701
NCI-H1299 = assay: Antiproliferative activity against human NCI-H1299 cells by MTT assay
HCT-116 = assay: Antiproliferative activity against human HCT-116 cells by MTT assay
U2OS = assay: Antiproliferative activity against human U2OS cells by MTT assay
HepG2 = assay: Antiproliferative activity against human HepG2 cells by MTT assay
MCF7 = assay: Antiproliferative activity against human MCF7 cells by MTT assay
KYSE-450 = assay: Antiproliferative activity against human KYSE-450 cells by MTT assay
[2] = Antiproliferative activity against human SKGT4 cells by MTT assay
HL-60 = assay: Antiproliferative activity against human HL-60 cells by MTT assay

Measured: IC50

CC(=O)OC(C)C(O)/C=C(\C)[C@H]1CC[C@H]2C3=CC(=O)[C@H]4CC(=CC[C@H](O)C4)[C@H]3CC[C@]12C (stereo partly drawn)
> 20 µM: all assays above

C/C=C/[C@H](OC(C)=O)[C@](C)(O)[C@H]1CC[C@H]2C3=CC(=O)[C@H]4CC(=CC[C@H](O)C4)[C@H]3CC[C@]12C
> 20 µM: all assays above

CO[C@@H](/C=C(\C)[C@H]1CC[C@H]2C3=CC(=O)[C@H]4CC(=CC[C@H](O)C4)[C@H]3CC[C@]12C)[C@@H](C)O
> 20 µM: all assays above

C/C(=C\C(=O)C(C)O)[C@H]1CC[C@H]2C3=CC(=O)[C@H]4CC(=CC[C@H](O)C4)[C@H]3CC[C@]12C (stereo partly drawn)
> 20 µM: all assays above

COC(/C=C(\C)[C@H]1CC[C@H]2C3=CC(=O)[C@H]4CC(=CC[C@H](O)C4)[C@H]3CC[C@]12C)C(C)O (stereo partly drawn)
> 20 µM: all assays above

C[C@]12CC[C@@H]3C4=CC[C@H](O)C[C@H](C4)C(=O)C=C3[C@@H]1CC[C@@H]2[C@](C)(O)CC(=O)O
> 20 µM: all assays above
